Reference: patent US11229712B2, “In vivo detection of a xenon-binding cage molecule” (Lakehead University, priority 2016, dated 2022)
“Also recorded” adds a separate entry of the source.

Experiments:
[1] = HyperCEST depletion of CB6 in whole bovine blood (129Xe NMR spectra, 3T); assay type: physicochemical
Protocol: […] of cucurbituril (CB6) was made by dissolving 50 mg of CB6 (Sigma-Aldrich, St. Louis, USA) in 10 mL of 1× phosphate buffered saline (PBS) at pH 7.2 at room temperature. The mixture was shaken gently. Ten mL of the CB6-PBS solution was mixed with 10 mL of fresh citrated bovine blood (Cederlane, Burlington Calif.) within a 30 mL syringe to create a 2.5 mM solution of CB6 in a blood solution. The control sample was prepared in an identical manner as the CB6 solution except CB6 was omitted. The control sample contained 10 mL of PBS and 10 mL of bovine blood.
Serial dilutions of CB6 in blood were made by adding an appropriate amount of blood to the 2.5 mM stock solution.
^129Xe gas was polarized to 30% using a Xemed polarizer (Xemed, Durham, N.H.). 7.5 mL of HP ^129Xe gas was introduced into the syringe over 5 s from the Tedlar bag in the pressure chamber which was pressurized at 3 psi above atmosphere. The solution and gas were mixed by agitating the syringe for approximately 12 s. Approximately 3 mL of ^129Xe dissolved in the blood/PBS solvent, the remaining undissolved ^129Xe was ejected from the syringe, yielding an effective ^129Xe concentration of 7.5 mM. The procedure was repeated for each spectral acquisition for the HyperCEST depletion spectrum. The 30 mL syringe containing the CB6-blood solution was placed inside a custom RF coil tuned to the Larmor frequency of 129Xe (35.33 MHz) at 3T. A Philips Achieva 3T clinical scanner was used to acquire all NMR spectra and MR images. A free induction decay (FID) was collected and the chemical shift of the ^129Xe/CB6 complex was noted. Ref B1 is a parameter of Philips MR scanners and is used to calculate the RF pulse length. The scanner uses the pulse length and flip angle to determine the amplitude of the RF pulse and field strength. For these experiments, the scanner set a B1 field strength of 1.18 μT. For the NMR spectra and images, a pulsed saturation pre-pulse train consisting of 16-6 ms 3-lobe sinc pulses with 3 ms pulse intervals was applied +124.3 ppm off resonance from the gas phase peak which corresponds to the chemical shift of the CB6-Xe complex. For initial HyperCEST depletion measurements, control spectra were collected with an off resonance saturation pre-pulse at 258 ppm. A HyperCEST depletion spectrum was collected by measuring HyperCEST depletion at various shift offsets from the CB6/Xe peak. A minimum of 3 spectra were collected at each chemical shift and the mean signal depletion was plotted as a function of the frequency of the chemical shift offset. The signal-noise ratio (SNR) of each spectrum was calculated using MATLAB (MathWorks, Natick Mass.). Signal depletion values due to the HyperCEST effect were measured by subtracting the HyperCEST saturation spectrum SNR from the control spectrum SNR and dividing by the control SNR.

[2] = HyperCEST 129Xe MR imaging of syringes with CB6 blood solution and saturation map; assay type: physicochemical, bovine; conditions: 2.5 mM CB6 in blood, on-resonance pre-pulses at 124.3 ppm (FIG. 4)
Description: We obtained MR images of two syringes within the same field of view: one filled with a CB6 blood solution, the other with only a blood solution and no CB6 molecules (FIG. 4). Signal from the plasma, gas phase, and RBC-bound xenon is present in the control image (FIG. 4A). We observed a gas phase chemical shift artifact, offset by 43 pixels of 67.1 mm. Additionally, we observed a stronger gas phase signal from the control solution (right syringe) than the CB6 syringe (left syringe). We attribute this phenomenon to the differences in the extent of blood foam formation between the two solutions. The control solution foamed more than the CB6 solution, which provided a reservoir of gaseous hyperpolarized xenon to exchange with the xenon dissolved in the plasma providing a stronger xenon-plasma signal. […] A saturation map was produced (FIG. 4C) by normalizing each image by Its own background noise and subtracting the off-resonance control image from the HyperCEST saturation image and normalizing pixel-by-pixel, the off-resonance image. […]
^129Xe gas was polarized to 30% using a Xemed polarizer (Xemed, Durham, N.H.). […] The signal-noise ratio (SNR) of each spectrum was calculated using MATLAB (MathWorks, Natick Mass.). Signal depletion values due to the HyperCEST effect were measured by subtracting the HyperCEST saturation spectrum SNR from the control spectrum SNR and dividing by the control SNR.

[3] = In vivo HyperCEST 129Xe MR spectra of abdomen and brain after IV CB6; set-up: species or system Sprague-Dawley rat; conditions: 3 mL of 10 mM CB6 IV, pre-pulse +124.3 ppm
Protocol: A 10 mM solution of the CB6 cage molecule dissolved in 1×PBS (pH 7.2) was prepared. 3 mL of the CB6 solution was injected into the tail vein catheter of a Sprague-Dawley rat and allowed to bio-distribute for 30 minutes. An endotracheal tube was surgically placed in the anaesthetized rat, and the rat was ventilated with 100% oxygen using a custom made ventilator. The rat was placed into a whole body custom made rat RF coil. Five seconds prior to xenon MR image acquisition, the rat was ventilated with a gas mixture of 80% xenon/20% oxygen. We acquired free induction decay (FID) magnetic resonance spectra (MRS) (FIGS. 5 & 6, A & D) from both the abdomen and head of the rat. […] We attribute this to a variety of susceptibility and line broadening effects occurring in vivo. […]
(§1) A midline incision was made in the neck of the rat and the trachea localized. […] A Positive End Expiratory Pressure of 20 mBar was measured. […]
30 minutes following injection of CB6, the ventilator was set to continuously dispense an 80% xenon/20% oxygen mixture to the rat. […] The signal to noise ratio (SNR) of each spectrum was calculated using MATLAB. The HyperCEST depletion at each chemical shift offset was calculated and plotted using Microsoft Excel.

[4] = In vivo HyperCEST 129Xe MRI saturation maps showing location of CB6; set-up: species or system Sprague-Dawley rat; conditions: rat
Description: We then acquired ^1H turbo spin echo (TSE) MR images to correlate the xenon signal with its anatomical location. Immediately prior to ^129Xe image acquisition, the rat was ventilated with xenon as described above. The imaging sequence began with a saturation pre-pulse consisting of sixteen 20 ms 3-lobe sinc pulses with a 3 sec pulse interval applied at […] chemical shift frequencies. ^129Xe gradient echo (GE) images were acquired with both on-resonance and off-resonance saturation pre-pulses (FIGS. 6 & 7B & E). […] By applying the HyperCEST saturation pulses, we observed a reduction in signal in areas containing the CB6 molecules (FIGS. 6 & 7E).
We also created a HyperCEST saturation map in the brain of the rat (FIG. 8B).
All animal procedures were approved by the Lakehead University Animal Care Committee. Sprague-Dawley rats (n=6) (Charles River, Sherbrook QC) weighing between 300-400 g were anesthetized using 4 LPM of isoflurane until their corneal reflex became absent. […]
as §1
30 minutes following CB6 injection, the ventilator was set to dispense xenon to the rat. […] Images were collected and analyzed using MATLAB. […]

[5] = from reference 14; cited from earlier work

With O=C1N2CN3C(=O)N4CN5C(=O)N6CN7C(=O)N8CN9C(=O)N%10CN%11C(=O)N%12CN1C1C2N2CN%13C(=O)N(CN%14C(=O)N(CN%15C(=O)N(CN%16C(=O)N(CN%17C(=O)N(CN1C2=O)C%12C%11%17)C%10C9%16)C8C7%15)C6C5%14)C4C3%13 (centres unmarked) [CB6, cucurbituril] the “HyperCEST depletion as a function of CB6 concentration” value ([1]; 250 μM CB6 in whole bovine blood (FIG. 3)) was 14%, the “HyperCEST depletion in the dissolved phase xenon signal” value ([1]; 2.5 mM CB6 in blood and PBS, saturation pre-pulse train at +124.3 ppm (FIG. 1)) was 84% and the “HyperCEST depletion as a function of CB6 concentration” value ([1]; 2.5 mM CB6 in whole bovine blood (FIG. 3)) was 80%. The “HyperCEST signal depletion, local minimum of depletion spectrum” value ([1]; CB6 in blood, pulsed at +124.3 ppm (FIG. 2)) was 74%, the “Lowest CB6 concentration at which HyperCEST depletion was measurable” value ([1]; serial dilutions of CB6 in blood) was 10 µM and the “Depletion of dissolved phase xenon signal in MR image and saturation map” value [2] was “almost complete depletion; also recorded: strong CB6 HyperCEST signal depletion”. For the same molecule, the “Reduction in signal intensity compared to the off-resonance control spectrum” value ([3]; rat abdomen, 30 minutes) was 86%, the “Reduction in signal intensity of the MR signal” value ([3]; rat brain) was 38% and the “Location of CB6 in HyperCEST saturation map” value ([4]; 3 mL of 10 mM CB6 IV, imaging 30 minutes after injection) was “heart, lungs, aorta, kidneys, and bladder; also recorded: brain, heart, lungs, aorta, carotid arteries, and kidneys”. For the same molecule, the “Excretion of CB6” value ([4]; weak HyperCEST signal from the bladder) was “renal clearance into the bladder; also recorded: excreted by the kidneys” and the Xe-CB6 exchange [5] was 1470 s⁻¹.
